Results published in patent publication US11911386B2, “Methods of treating B-cell proliferative disorder” (BeiGene Switzerland GmbH, priority 2022, dated 2024).
Values joined by “and” are separate entries in the source; they are usually repeats but may differ in a detail not shown here. Equal entries are not always repeated.

Settings: After Coadministration

C=CC(=O)N1CCC([C@@H]2CCNc3c(C(N)=O)c(-c4ccc(Oc5ccccc5)cc4)nn32)CC1 [zanubrutinib, (S)-7-(1-acryloylpiperidin-4-yl)-2-(4-phenoxyphenyl)-4,5,6,7-tetrahydropyrazolo[1,5-a]pyrimidine-3-carboxamide]
Anemia AESI ≥Grade 3, EAIR: 0.18 per 100 person-months
Anemia AESI, EAIR: 0.53 per 100 person-months
Atrial fibrillation PT: 2.8%
Atrial fibrillation and flutter AESI Grade ≥3, EAIR: 0.18 per 100 person-months
Atrial fibrillation and flutter AESI Grade ≥3, patients: 3.7%
Atrial fibrillation and flutter AESI, EAIR: 0.23 per 100 person-months
Atrial fibrillation and flutter AESI, patients: 4.7%
Atrial flutter PT: 1.9%
Basal cell carcinoma: 5.6%
Basal cell carcinoma leading to dose interruption: 1 (0.9%) n (%)
Basal cell carcinoma ≥Grade 3: 1 (0.9%) n (%)
External ear neoplasm malignant leading to dose interruption: 0 (0.0%) n (%)
Febrile neutropenia PT: 3.7%
Grade 3 or higher AESI: 48 (44.9) n (%)
Haematuria (hemorrhage AESI): 4.7%
Haematuria (major hemorrhage): 0 (0.0%) n (%)
Haematuria (major hemorrhage) ≥Grade 3: 0 (0.0%) n (%)
Haematuria leading to dose interruption: 0.0%
Haematuria ≥Grade 3: 0 (0.0%) n (%)
Hemorrhage AESI leading to dose interruption: 2.8%
Hemorrhage AESI leading to dose reduction: 0.9%
Hemorrhage AESI ≥Grade 3, EAIR: 0.09 per 100 person-months
Hemorrhage AESI ≥Grade 3, patients: 1.9%
Hemorrhage AESI, EAIR: 1.39 per 100 person-months
Hemorrhage AESI, patients: 23.4%
Hypertension AESI ≥Grade 3, EAIR: 0.18 per 100 person-months
Hypertension AESI ≥Grade 3, patients: 3.7%
Hypertension AESI, EAIR: 0.37 per 100 person-months
Hypertension AESI, patients: 7.5%
Infection AESI leading to dose reduction: 1.9%
Infection AESI leading to treatment discontinuation: 3.7%
Infection AESI ≥Grade 3, EAIR: 1.45 per 100 person-months
Infection AESI, EAIR: 9.70 per 100 person-months
Major hemorrhage AESI leading to dose interruption: 0.9%
Major hemorrhage AESI ≥Grade 3, EAIR: 0.09 per 100 person-months
Major hemorrhage AESI ≥Grade 3, patients: 1.9%
Major hemorrhage AESI, EAIR: 0.09 per 100 person-months
Major hemorrhage AESI, patients: 1.9%
Malignant melanoma: 1 (0.9%) n (%)
Neutropenia AESI leading to dose reduction: 1.9%
Neutropenia AESI leading to treatment interruption: 6.5%
Neutropenia AESI ≥Grade 3, EAIR: 0.63 per 100 person-months
Neutropenia AESI ≥Grade 3, patients: 20.1%
Neutropenia AESI, EAIR: 0.92 per 100 person-months
Neutropenia AESI, patients: 16.8%
Neutropenic sepsis PT: 0.0%
Neutropenic sepsis ≥Grade 3: 0.0%
Neutrophil count decreased leading to dose reduction: 0.0%
Opportunistic infection AESI leading to dose reduction: 0.9%
Opportunistic infection AESI leading to treatment discontinuation: 0.9%
Opportunistic infection AESI ≥Grade 3, EAIR: 0.04 per 100 person-months
Opportunistic infection AESI ≥Grade 3, patients: 1 (0.9%) n (%)
Opportunistic infection AESI, EAIR: 0.13 per 100 person-months
Opportunistic infection AESI, patients: 2.8%
Opportunistic infection SAEs, EAIR: 0.04 per 100 person-months
Patients with at least 1 AESI: 89 (83.2) n (%)
Petechiae (hemorrhage AESI): 0.0%
Platelet count decreased PT: 4.7%
Platelet count decreased ≥Grade 3: 0.9%
Purpura (hemorrhage AESI): 0.0%
SAEs of opportunistic infections, patients: 0.9% and 2.8%
Second primary malignancies AESI leading to dose interruption: 5.6%
Second primary malignancies AESI leading to treatment discontinuation: 2.8%
Second primary malignancies AESI ≥Grade 3, EAIR: 0.27 per 100 person-months
Second primary malignancies AESI ≥Grade 3, patients: 5.6%
Second primary malignancies AESI, EAIR: 0.60 per 100 person-months
Second primary malignancies AESI, patients: 12.1%
Serious anemia AESI, EAIR: 0.04 per 100 person-months
Serious atrial fibrillation and flutter AESI, EAIR: 0.09 per 100 person-months
Serious atrial fibrillation and flutter AESI, patients: 1.9%
Serious external ear neoplasm malignant: 0 (0.0%) n (%)
Serious haematuria: 0 (0.0%) n (%)
Serious haematuria (major hemorrhage): 0 (0.0%) n (%)
Serious hemorrhage AESI, EAIR: 0.09 per 100 person-months
Serious hemorrhage AESI, patients: 1.9%
